Data as given in PubChem BioAssay (NCI).
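Five compound concentrations were applied to cells in 96-well plates for 48 hours; endpoints were derived by simple linear interpolation of the resulting dose-response curve. GI50 = concentration required for 50% inhibition of growth. The concentration for full growth arrest is given as TGI.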

Legend:
Assay in all cases: growth of human tumour cells (NCI), 48 h
[1] = tested on: COLO 205 colon
[2] = tested on: UO-31 renal
[3] = tested on: DU-145 prostate
[4] = tested on: SF-268 CNS
[5] = tested on: SF-295 CNS
[6] = tested on: PC-3 prostate
[7] = tested on: SNB-75 CNS
[8] = tested on: LOX IMVI melanoma
[9] = tested on: SN12C renal
[10] = tested on: HOP-62 NSCLC
[11] = tested on: U251 CNS
[12] = tested on: SF-539 CNS
[13] = tested on: OVCAR-4 ovarian
[14] = tested on: HCT-15 colon
[15] = tested on: HT29 colon
[16] = tested on: NCI-H23 lung
[17] = tested on: HOP-92 NSCLC
[18] = tested on: HCT-116 colon
[19] = tested on: SW-620 colon
[20] = tested on: HCC-2998 colon
[21] = tested on: NCI-H522 lung
[22] = tested on: MDA-MB-435
[23] = tested on: SR leukemia
[24] = tested on: CCRF-CEM leukemia
[25] = tested on: SK-OV-3 ovarian
[26] = tested on: A498 renal
[27] = tested on: HL-60(TB) leukemia
[28] = tested on: OVCAR-3 ovarian
[29] = tested on: TK-10 renal
[30] = tested on: SK-MEL-2 melanoma
[31] = tested on: ACHN renal
[32] = tested on: RPMI-8226 leukemia
[33] = tested on: 786-0 renal
[34] = tested on: OVCAR-8 ovarian
[35] = tested on: KM12 colon
[36] = tested on: A549 NSCLC
[37] = tested on: T-47D breast
[38] = tested on: CAKI-1 renal
[39] = tested on: UACC-62 melanoma
[40] = tested on: MOLT-4 leukemia
[41] = tested on: NCI-H226 lung
[42] = tested on: BT-549 breast
[43] = tested on: SK-MEL-5 melanoma
[44] = tested on: M14 melanoma
[45] = tested on: MDA-MB-231 breast
[46] = tested on: MALME-3M melanoma
[47] = tested on: UACC-257 melanoma
[48] = tested on: OVCAR-5 ovarian
[49] = tested on: NCI-H460 lung
[50] = tested on: SK-MEL-28 melanoma
[51] = tested on: NCI/ADR-RES ovarian
[52] = tested on: RXF 393 renal
[53] = tested on: K-562 leukemia
[54] = tested on: HS 578T breast
[55] = tested on: MCF7 breast
[56] = tested on: IGROV1 ovarian
[57] = tested on: SNB-19 CNS
[58] = tested on: EKVX NSCLC

## OCC1OC(n2ccc3c2ncn2ncnc32)C(O)C1O (stereo not drawn)
[1]
  GI50: 2.77 µM
  TGI: 19.1 µM
[2]
  GI50: 2.74 µM
  TGI: > 100 µM
[3]
  GI50: 0.379 µM
  TGI: > 100 µM
[4]
  GI50: 6.83 µM
  TGI: > 100 µM
[5]
  GI50: 1.13 µM
  TGI: > 59.8 µM
[6]
  GI50: 0.459 µM
  TGI: 22.8 µM
[7]
  GI50: 4.2 µM
  TGI: 68.7 µM
[8]
  GI50: 0.29 µM
  TGI: 1.76 µM
[9]
  GI50: 0.6 µM
  TGI: > 100 µM
[10]
  GI50: 0.595 µM
  TGI: 33.1 µM
[11]
  GI50: 47.7 µM
  TGI: > 100 µM
[12]
  GI50: 2.13 µM
  TGI: 57.3 µM
[13]
  GI50: 5.1 µM
  TGI: 63.1 µM
[14]
  GI50: 0.47 µM
  TGI: > 100 µM
[15]
  GI50: 0.444 µM
  TGI: > 100 µM
[16]
  GI50: 1.4 µM
  TGI: > 100 µM
[17]
  GI50: 0.253 µM
  TGI: 9.22 µM
[18]
  GI50: 1.38 µM
  TGI: > 100 µM
[19]
  GI50: 0.528 µM
  TGI: > 100 µM
[20]
  GI50: 3.09 µM
  TGI: > 100 µM
[21]
  GI50: 90.4 µM
  TGI: > 100 µM
[22]
  GI50: 6.5 µM
  TGI: > 100 µM
[23]
  GI50: 2.96 µM
  TGI: > 68.8 µM
[24]
  GI50: 0.596 µM
  TGI: > 100 µM
[25]
  GI50: 2.08 µM
  TGI: > 49.2 µM
[26]
  GI50: 0.205 µM
  TGI: 2.37 µM
[27]
  GI50: 0.854 µM
  TGI: 5.5 µM
[28]
  GI50: 0.552 µM
  TGI: > 100 µM
[29]
  GI50: 3.81 µM
  TGI: > 100 µM
[30]
  GI50: 46.2 µM
  TGI: > 100 µM
[31]
  GI50: 0.719 µM
  TGI: > 100 µM
[32]
  GI50: 6.62 µM
  TGI: > 100 µM
[33]
  GI50: 2.47 µM
  TGI: > 100 µM
[34]
  GI50: 0.392 µM
  TGI: 5.68 µM
[35]
  GI50: 2.42 µM
  TGI: > 100 µM
[36]
  GI50: 4.91 µM
  TGI: > 100 µM
[37]
  GI50: 0.273 µM
  TGI: 5.54 µM
[38]
  GI50: 2.67 µM
  TGI: > 100 µM
[39]
  GI50: 8.42 µM
  TGI: > 100 µM
[40]
  GI50: 0.407 µM
  TGI: > 43.1 µM
[41]
  GI50: 1.59 µM
  TGI: > 100 µM
[42]
  GI50: 1.23 µM
  TGI: 25.2 µM
[43]
  GI50: 12 µM
  TGI: 50.1 µM
[44]
  GI50: 5.65 µM
  TGI: > 100 µM
[45]
  GI50: 1.52 µM
  TGI: > 100 µM
[46]
  GI50: 29 µM
  TGI: > 100 µM
[47]
  GI50: > 70.4 µM
  TGI: > 100 µM
[48]
  GI50: 1.19 µM
  TGI: > 100 µM
[49]
  GI50: 2.25 µM
  TGI: > 100 µM
[50]
  GI50: > 72.9 µM
  TGI: > 100 µM
[51]
  GI50: 0.712 µM
  TGI: 63.7 µM
[52]
  GI50: 0.989 µM
  TGI: 13.8 µM
[53]
  GI50: 2.07 µM
  TGI: > 100 µM
[54]
  GI50: 6.46 µM
  TGI: 85.9 µM
[55]
  GI50: 0.183 µM
  TGI: 20.4 µM
[56]
  GI50: 3.73 µM
  TGI: > 47.4 µM
[57]
  GI50: 4.7 µM
  TGI: > 100 µM

## COc1ccc(C(=O)/C=C/c2ccc(Cl)cc2)cc1S(=O)(=O)Nc1c(N)nc(SC)[nH]c1=O
[1]
  GI50: 1.76 µM
  TGI: 3.42 µM
[2]
  GI50: 1.89 µM
  TGI: 4.53 µM
[3]
  GI50: 3.58 µM
  TGI: 11.5 µM
[58]
  GI50: 3.94 µM
  TGI: 18.3 µM
[4]
  GI50: 2.69 µM
  TGI: 7.32 µM
[5]
  GI50: 2.72 µM
  TGI: 8.91 µM
[6]
  GI50: 2.53 µM
  TGI: 6.85 µM
[8]
  GI50: 1.63 µM
  TGI: 3.22 µM
[9]
  GI50: 3.45 µM
  TGI: 13.8 µM
[10]
  GI50: 1.81 µM
  TGI: 3.97 µM
[11]
  GI50: 1.58 µM
  TGI: 3.12 µM
[12]
  GI50: 2.1 µM
  TGI: 5 µM
[13]
  GI50: 4.49 µM
  TGI: 14.9 µM
[14]
  GI50: 3.24 µM
  TGI: 14.9 µM
[15]
  GI50: 2.93 µM
  TGI: 7.93 µM
[16]
  GI50: 2.53 µM
  TGI: 6.36 µM
[17]
  GI50: 2.59 µM
  TGI: 7.99 µM
[18]
  GI50: 1.56 µM
  TGI: 2.94 µM
[19]
  GI50: 2.24 µM
  TGI: 5.5 µM
[20]
  GI50: 1.92 µM
  TGI: 3.53 µM
[21]
  GI50: 1.88 µM
  TGI: 4.08 µM
[22]
  GI50: 2.95 µM
  TGI: 10.7 µM
[23]
  GI50: 3.57 µM
  TGI: > 100 µM
[24]
  GI50: 2.66 µM
  TGI: 8.97 µM
[25]
  GI50: 3.65 µM
  TGI: 13.4 µM
[26]
  GI50: 10.6 µM
  TGI: 22.4 µM
[27]
  GI50: 3.2 µM
  TGI: 16.1 µM
[28]
  GI50: 1.94 µM
  TGI: 3.94 µM
[29]
  GI50: 2.98 µM
  TGI: 9.44 µM
[30]
  GI50: 12.8 µM
  TGI: 27.9 µM
[31]
  GI50: 3.23 µM
  TGI: 12.1 µM
[32]
  GI50: 2.17 µM
  TGI: 5.97 µM
[33]
  GI50: 1.95 µM
  TGI: 4.13 µM
[34]
  GI50: 3.07 µM
  TGI: 9.56 µM
[35]
  GI50: 2.09 µM
  TGI: 4.51 µM
[36]
  GI50: 2.75 µM
  TGI: 7.62 µM
[37]
  GI50: 2.45 µM
  TGI: 9.83 µM
[38]
  GI50: 3.83 µM
  TGI: 18.6 µM
[39]
  GI50: 2.33 µM
  TGI: 6.65 µM
[40]
  GI50: 3.71 µM
  TGI: 18.7 µM
[41]
  GI50: 2.34 µM
  TGI: 8.36 µM
[42]
  GI50: 1.63 µM
  TGI: 3.17 µM
[43]
  GI50: 2.72 µM
  TGI: 9.59 µM
[44]
  GI50: 2 µM
  TGI: 4.89 µM
[45]
  GI50: 3.42 µM
  TGI: 10.5 µM
[46]
  GI50: 3.02 µM
  TGI: 9.93 µM
[47]
  GI50: 8.27 µM
  TGI: 21.4 µM
[48]
  GI50: 2.83 µM
  TGI: 9.53 µM
[49]
  GI50: 2.49 µM
  TGI: 6.29 µM
[50]
  GI50: 2.1 µM
  TGI: 4.97 µM
[51]
  GI50: 40.1 µM
  TGI: > 100 µM
[52]
  GI50: 1.6 µM
  TGI: 3.26 µM
[53]
  GI50: 2.77 µM
  TGI: > 100 µM
[54]
  GI50: 3.56 µM
  TGI: 24.2 µM
[55]
  GI50: 1.97 µM
  TGI: 8.25 µM
[56]
  GI50: 3.25 µM
  TGI: 11.9 µM
[57]
  GI50: 2.52 µM
  TGI: 8.34 µM
